Patent US7109329B2, “Neurologically active compounds and compounds with multiple activities” (priority 1988, dated 2006)

Experiment: Treatment of spinal cord injured rats and cats with alpha-adrenoceptor agonists
Type: in vivo
Description: The animals are treated with a guanidino compound, e.g., guanphylline or aminoguanphylline, twice daily (1 mg/kg). Approximately 10, 14 and 20 days after treatment with, e.g., guanphylline or aminoguanphylline is commenced, these animals can also be treated with a serotonergic (“5-HT”) receptor agonist; such as quipazine (1–2 mg/kg). Such serotonergic compounds can accelerate the recovery period, i.e., shorten the period after which time the animals become mobile. The animals should then continue to be treated systemically with the guanidino compound twice daily for six to eight weeks, or until functional recovery has been achieved.
Many rats and cats have been treated with several alpha-adrenoceptor agonists in order to ascertain which drug has the least side effects and reduces the time period for recovery.

With Cn1c(=O)c2c(ncn2C(=O)CNC(=N)N)n(C)c1=O [7-(guanidinoacetyl)-theophylline] the “efficacy in treated rats and cats” value was “found efficacious”.
